Assay results from PMC12198282, “Application of a high-density microelectrode array assay using a 3D human iPSC-derived brain microphysiological system model for in vitro neurotoxicity screening of environmental compounds” (Archives of Toxicology, 2025).
Entries after “also recorded” stand apart in the source; their conditions may differ. Read-outs that look alike come from different tables or passages of the source.

Key:
[1] = test system: 2D rat cortical cultures; conditions: cytotoxicity LDH, cited from earlier work; for hitc CCTE_Shafer_MEA_dev_LDH: rNFA mc5 hit call
[2] = test system: human iPSC-derived 3D BrainSpheres; test: BrainSphere MEA assay (HD-MEA, 13-day exposure, concentration-response); type: cell-based; conditions: for EC (benchmark response 1.349 SD): 312 h
Procedure, shortened: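 7-week-differentiated BrainSpheres were plated on laminin/poly-D-lysine-coated HD-MEA chips and given 2 days to attach. Neural activity was recorded from the same regions of interest through a 13-day exposure, from day 0 onward. Ten network and general activity endpoints were derived per BrainSphere, with ≥3 biological replicates.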

[3] = test system: 2D rat cortical cultures; conditions: rNFA mc5 hit call; cytotoxicity AlamarBlue; cited from earlier work
[4] = AUC over 13-day exposure, tcplfit2
[5] = Homo sapiens, read-out: BMD Mean.Spheroid.Burst.ISI
[6] = Homo sapiens, read-out: BMD Mean.Spheroid.Nonburst.ISI
[7] = tcplfit2 BMD at benchmark response (1.349*SD of baseline controls)
[8] = tcplfit2 output ACC, activity cutoff in Supplemental Table 1
[9] = Homo sapiens, read-out: ac50 Mean.Spheroid.Burst.Duration
[10] = Homo sapiens, read-out: ac50 Mean.Spheroid.Burst.ISI
[11] = Homo sapiens, read-out: ac50 Mean.Spheroid.Burst.Peak.Firing.Rate
[12] = Homo sapiens, read-out: ac50 Mean.Spheroid.IBI
[13] = Homo sapiens, read-out: ac50 Mean.Spheroid.Spikes.per.Burst
[14] = Homo sapiens, read-out: ac50 Mean.Spheroid.Spikes.per.Burst.per.Electrode
[15] = Homo sapiens, read-out: ac50 Spheroid.Spike.Amplitude.90th.Percentile

For `C/C(=C/C=C/[C@@H](C)C(=O)O)[C@H]1CN[C@H](C(=O)O)[C@H]1CC(=O)O` [Domoic acid], the “hitc CCTE_Shafer_MEA_dev_LDH” value [1] is given as 1, the AC50 ([1]; read-out: ac50 CCTE_Shafer_MEA_dev_LDH, rNFA mc5) is given as 6.75 µM and the “Difference of minimum potency between BrainSphere MEA assay and rNFA” value ([2]; 5th percentile of AC50 values by chemical, above 0.5 = more potent in the rNFA) is given as “more than 0.5 log10 µM”. For the same compound, the “hitc Mean.Spheroid.Burst.Duration” value [2, 4] was 1, the “hitc Mean.Spheroid.Burst.ISI” value [2, 4] was 1 and the “hitc Mean.Spheroid.Burst.Peak.Firing.Rate” value [2, 4] was 1. For the same compound, the “hitc Mean.Spheroid.Firing.Rate” value [2, 4] was 1, the “hitc Mean.Spheroid.IBI” value [2, 4] was 1 and the “hitc Mean.Spheroid.Nonburst.ISI” value [2, 4] was 1. For the same compound, the “hitc Mean.Spheroid.Spikes.per.Burst” value [2, 4] was 1, the “hitc Mean.Spheroid.Spikes.per.Burst.per.Electrode” value [2, 4] was 1 and the “hitc Spheroid.Burst.Frequency” value [2, 4] was 1. The “hitc Spheroid.Spike.Amplitude.90th.Percentile” value [2, 4] was 0, the EC (benchmark response 1.349 SD) [2, 5] was 2.6 µM and the EC (benchmark response 1.349 SD) [2, 6] was 0.99 µM. It also gave an EC50 ([2]; Homo sapiens, read-out: Mean potency) of 3.32 µM, an EC50 ([2]; Homo sapiens, read-out: Minimum potency) of 1.3 µM and an AC50 ([2]; Homo sapiens, read-out: ac50 Mean.Spheroid.Burst.Duration, concentration at 50% maximal activity, Supplement 3 prints it also for curves with hit call 0) of 3.6 µM. It also gave an AC50 ([2]; Homo sapiens, read-out: ac50 Mean.Spheroid.Burst.ISI, concentration at 50% maximal activity, Supplement 3 prints it also for curves with hit call 0) of 4.4 µM, an AC50 ([2]; Homo sapiens, read-out: ac50 Mean.Spheroid.Burst.Peak.Firing.Rate, concentration at 50% maximal activity, Supplement 3 prints it also for curves with hit call 0) of 3.1 µM and an AC50 ([2]; Homo sapiens, read-out: ac50 Mean.Spheroid.Firing.Rate, concentration at 50% maximal activity, Supplement 3 prints it also for curves with hit call 0) of 5.4 µM. For the same compound, the AC50 ([2]; Homo sapiens, read-out: ac50 Mean.Spheroid.IBI, concentration at 50% maximal activity, Supplement 3 prints it also for curves with hit call 0) was 3.55 µM, the AC50 ([2]; Homo sapiens, read-out: ac50 Mean.Spheroid.Nonburst.ISI, concentration at 50% maximal activity, Supplement 3 prints it also for curves with hit call 0) was 1 µM and the AC50 ([2]; Homo sapiens, read-out: ac50 Mean.Spheroid.Spikes.per.Burst, concentration at 50% maximal activity, Supplement 3 prints it also for curves with hit call 0) was 3 µM. The AC50 ([2]; Homo sapiens, read-out: ac50 Mean.Spheroid.Spikes.per.Burst.per.Electrode, concentration at 50% maximal activity, Supplement 3 prints it also for curves with hit call 0) was 1.7 µM, the AC50 ([2]; Homo sapiens, read-out: ac50 Spheroid.Burst.Frequency, concentration at 50% maximal activity, Supplement 3 prints it also for curves with hit call 0) was 4.2 µM and the AC50 ([2]; Homo sapiens, read-out: ac50 Spheroid.Spike.Amplitude.90th.Percentile, concentration at 50% maximal activity, Supplement 3 prints it also for curves with hit call 0) was 15 µM. The Percent active ([2]; metrics active out of the total number of metrics screened) was 90%, the AC50 ([2]; read-out: ac50 Mean.Spheroid.Burst.Duration, concentration at 50% maximal activity, Supplement 3 prints it also for curves with hit call 0, listed as L-Domoic acid) was 3.58 µM and the AC50 ([2]; read-out: ac50 Mean.Spheroid.Burst.ISI, concentration at 50% maximal activity, Supplement 3 prints it also for curves with hit call 0, listed as L-Domoic acid) was 4.36 µM. It also gave an AC50 ([2]; read-out: ac50 Mean.Spheroid.Burst.Peak.Firing.Rate, concentration at 50% maximal activity, Supplement 3 prints it also for curves with hit call 0, listed as L-Domoic acid) of 3.1 µM, an AC50 ([2]; read-out: ac50 Mean.Spheroid.Firing.Rate, concentration at 50% maximal activity, Supplement 3 prints it also for curves with hit call 0, listed as L-Domoic acid) of 5.41 µM and an AC50 ([2]; read-out: ac50 Mean.Spheroid.Nonburst.ISI, concentration at 50% maximal activity, Supplement 3 prints it also for curves with hit call 0, listed as L-Domoic acid) of 1.02 µM. It also gave an AC50 ([2]; read-out: ac50 Mean.Spheroid.Spikes.per.Burst.per.Electrode, concentration at 50% maximal activity, Supplement 3 prints it also for curves with hit call 0, listed as L-Domoic acid) of 1.71 µM, an AC50 ([2]; read-out: ac50 Mean.Spheroid.Spikes.per.Burst, concentration at 50% maximal activity, Supplement 3 prints it also for curves with hit call 0, listed as L-Domoic acid) of 2.98 µM and an AC50 ([2]; read-out: ac50 Spheroid.Burst.Frequency, concentration at 50% maximal activity, Supplement 3 prints it also for curves with hit call 0, listed as L-Domoic acid) of 4.17 µM. The “BMD Mean.Spheroid.Burst.Duration” value [2, 7] was 2 µM, the “BMD Mean.Spheroid.Burst.Peak.Firing.Rate” value [2, 7] was 2 µM and the “BMD Mean.Spheroid.Firing.Rate” value [2, 7] was 6.6 µM. For the same compound, the “BMD Mean.Spheroid.IBI” value [2, 7] was 1.9 µM, the “BMD Mean.Spheroid.Spikes.per.Burst” value [2, 7] was 1.3 µM and the “BMD Mean.Spheroid.Spikes.per.Burst.per.Electrode” value [2, 7] was 1.3 µM. The “BMD Spheroid.Burst.Frequency” value [2, 7] was 4.4 µM, the “BMD Spheroid.Spike.Amplitude.90th.Percentile” value [2, 7] was 14 µM and the “ACC Mean.Spheroid.Burst.Duration” value [2, 8] was 1.8 µM. For the same compound, the “ACC Mean.Spheroid.Burst.ISI” value [2, 8] was 1.8 µM, the “ACC Mean.Spheroid.Burst.Peak.Firing.Rate” value [2, 8] was 1.8 µM and the “ACC Mean.Spheroid.Firing.Rate” value [2, 8] was 9.9 µM. The “ACC Mean.Spheroid.IBI” value [2, 8] was 3.1 µM, the “ACC Mean.Spheroid.Nonburst.ISI” value [2, 8] was 1 µM and the “ACC Mean.Spheroid.Spikes.per.Burst” value [2, 8] was 2.8 µM. The “ACC Mean.Spheroid.Spikes.per.Burst.per.Electrode” value [2, 8] was 1.5 µM, the “ACC Spheroid.Burst.Frequency” value [2, 8] was 3.8 µM and the “ACC Spheroid.Spike.Amplitude.90th.Percentile” value [2, 8] was 18 µM. The “hitc CCTE_Shafer_MEA_dev_AB” value [3] was 0.
In the case of `CC(=O)Nc1ccc(O)cc1` [Acetaminophen], the “hitc CCTE_Shafer_MEA_dev_LDH” value [1] is listed as 0, the “Bioactivity across the 10 MEA endpoints of the BrainSphere MEA assay (in words)” value (“Bioactivity across the 10 MEA endpoints” for short) [2] is listed as “inactive in both assays; also recorded: inactive across all endpoints; also recorded: inactivity across all metrics in both models” and the “Bioactivity trend over time for MFR, mean spike amplitude and burst frequency (qualitative)” value [2] is listed as “no clear chemical-dependent effects were observed”. The Hits [2] was 0, the Percent active [2] was 0% and the “hitc Mean.Spheroid.Burst.Duration” value [2] was 0. The “hitc Mean.Spheroid.Burst.ISI” value [2] was 0, the “hitc Mean.Spheroid.Burst.Peak.Firing.Rate” value [2] was 0 and the “hitc Mean.Spheroid.Firing.Rate” value [2] was 0. For the same compound, the “hitc Mean.Spheroid.IBI” value [2] was 0, the “hitc Mean.Spheroid.Nonburst.ISI” value [2] was 0 and the “hitc Mean.Spheroid.Spikes.per.Burst” value [2] was 0. The “hitc Mean.Spheroid.Spikes.per.Burst.per.Electrode” value [2] was 0, the “hitc Spheroid.Burst.Frequency” value [2] was 0 and the “hitc Spheroid.Spike.Amplitude.90th.Percentile” value [2] was 0. It also gave an EC (benchmark response 1.349 SD) [2, 5] of 415 µM, an EC (benchmark response 1.349 SD) [2, 6] of 163 µM and an AC50 [2, 9] of 4.7 µM. It also gave an AC50 [2, 10] of 45 µM, an AC50 [2, 11] of 0.37 µM and an AC50 [2, 12] of 1.8 µM. It also gave an AC50 [2, 13] of 6 µM, an AC50 [2, 14] of 0.39 µM and an AC50 ([2]; Homo sapiens, read-out: ac50 Spheroid.Burst.Frequency) of 0.61 µM. For the same compound, the AC50 [2, 15] was 0.24 µM and the “hitc CCTE_Shafer_MEA_dev_AB” value [3] was 0.
For `CC1(C)S[C@@H]2[C@H](NC(=O)[C@H](N)c3ccc(O)cc3)C(=O)N2[C@H]1C(=O)O` [Amoxicillin], the “hitc CCTE_Shafer_MEA_dev_LDH” value [1] is listed as 0, the “BMD Spheroid.Burst.Frequency” value [2] is listed as 448 µM and the “Bioactivity across the 10 MEA endpoints” value [2] is listed as “inactive across all metrics; also recorded: inactivity across all metrics in both models”. The Hits [2] was 0, the Percent active [2] was 0% and the “hitc Mean.Spheroid.Burst.Duration” value [2] was 0. The “hitc Mean.Spheroid.Burst.ISI” value [2] was 0, the “hitc Mean.Spheroid.Burst.Peak.Firing.Rate” value [2] was 0 and the “hitc Mean.Spheroid.Firing.Rate” value [2] was 0. For the same compound, the “hitc Mean.Spheroid.IBI” value [2] was 0, the “hitc Mean.Spheroid.Nonburst.ISI” value [2] was 0 and the “hitc Mean.Spheroid.Spikes.per.Burst” value [2] was 0. For the same compound, the “hitc Mean.Spheroid.Spikes.per.Burst.per.Electrode” value [2] was 0, the “hitc Spheroid.Burst.Frequency” value [2] was 0 and the “hitc Spheroid.Spike.Amplitude.90th.Percentile” value [2] was 0. The EC (benchmark response 1.349 SD) [2, 5] was 1440 µM, the EC (benchmark response 1.349 SD) [2, 6] was 620 µM and the AC50 [2, 9] was 0.22 µM. It also gave an AC50 [2, 10] of 45 µM, an AC50 [2, 11] of 0.029 µM and an AC50 [2, 12] of 0.063 µM. It also gave an AC50 [2, 13] of 0.01 µM, an AC50 [2, 14] of 0.036 µM and an AC50 [2, 15] of 0.13 µM. For the same compound, the “hitc CCTE_Shafer_MEA_dev_AB” value [3] was 0.
For `CCCC(CCC)C(=O)O` [Sodium valproate], the “hitc CCTE_Shafer_MEA_dev_LDH” value [1] is listed as 0, the “Bioactivity across the 10 MEA endpoints” value [2] is listed as “inactive across all metrics; also recorded: inactive in the BrainSphere MEA” and the EC (benchmark response 1.349 SD) ([2]; Homo sapiens, tcplfit2 BMD at benchmark response (1.349*SD of baseline controls), read-out: BMD Mean.Spheroid.Burst.ISI) is listed as 85 µM. For the same compound, the EC (benchmark response 1.349 SD) ([2]; Homo sapiens, tcplfit2 BMD at benchmark response (1.349*SD of baseline controls), read-out: BMD Mean.Spheroid.Nonburst.ISI) was 213 µM, the AC50 ([2]; Homo sapiens, concentration at 50% maximal activity, Supplement 3 prints it also for curves with hit call 0, read-out: ac50 Mean.Spheroid.Burst.Duration) was 45 µM and the AC50 ([2]; Homo sapiens, concentration at 50% maximal activity, Supplement 3 prints it also for curves with hit call 0, read-out: ac50 Mean.Spheroid.Burst.ISI) was 85 µM. The AC50 ([2]; Homo sapiens, concentration at 50% maximal activity, Supplement 3 prints it also for curves with hit call 0, read-out: ac50 Spheroid.Burst.Frequency) was 84 µM and the “hitc CCTE_Shafer_MEA_dev_AB” value [3] was 0.
